Measurements taken from ChEMBL document CHEMBL1201862, “PubChem BioAssay data set” (2004).
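Protocol summary: plate cells (96-well), add compound at 5 concentrations, incubate 48 h, interpolate endpoints linearly. GI50 = concentration required for 50% inhibition of growth.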 Active and inactive are the calls of the source. No stated cut-off is given here; in the data, active = GI50 up to about 1.1 µM and inactive = higher.

Tests used:
Assay in all cases: NCI anticancer screen, dose series, 48 h
[1] = system: CAKI-1
[2] = system: SN12C
[3] = system: OVCAR-3
[4] = system: IGROV-1
[5] = system: NCI-H460
[6] = system: SF-268
[7] = system: HCT-15
[8] = system: HOP-92
[9] = system: KM12
[10] = system: EKVX
[11] = system: DU-145
[12] = system: OVCAR-5
[13] = system: UACC-62
[14] = system: SR
[15] = system: SW-620
[16] = system: SNB-75
[17] = system: BT-549
[18] = system: NCI-H226
[19] = system: UACC-257
[20] = system: OVCAR-4

Row | SMILES | GI50 [1] | GI50 [2] | GI50 [3] | GI50 [4] | GI50 [5] | GI50 [6] | GI50 [7] [µM] | GI50 [8] | GI50 [9] | GI50 [10] | GI50 [11] | GI50 [12] | GI50 [13] | GI50 [14] | GI50 [15] | GI50 [16] | GI50 [17] | GI50 [18] | GI50 [19] | GI50 [20]
1 | CC1=NN(C(=O)CC(=O)NC(=O)/C=C\c2ccccc2)C(=O)C1/N=N/c1ccc([N+](=O)[O-])cc1 (stereo not drawn) | 30.6 µM (inactive) | > 100 µM (inactive) | 50.7 µM (inactive) | 58.3 µM (inactive) | > 100 µM (inactive) | > 100 µM (inactive) | > 100 | 38.3 µM (inactive) | 30 µM (inactive) | 46.9 µM (inactive) | 55.7 µM (inactive) | > 100 µM (inactive) | 24.3 µM (inactive) | > 10 µM (inactive) | > 100 µM (inactive) | 52.4 µM (inactive) | 19.1 µM (inactive) | – | – | –
2 | CO[C@H]1C[C@H](n2cc(C)c(=O)[nH]c2=O)O[C@@H]1CO | > 100 µM (inactive) | > 100 µM (inactive) | > 100 µM (inactive) | > 100 µM (inactive) | > 100 µM (inactive) | > 100 µM (inactive) | > 100 | – | > 100 µM (inactive) | > 100 µM (inactive) | > 100 µM (inactive) | > 100 µM (inactive) | > 100 µM (inactive) | > 100 µM (inactive) | > 100 µM (inactive) | > 100 µM (inactive) | > 100 µM (inactive) | > 100 µM (inactive) | > 100 µM (inactive) | > 100 µM (inactive)
3 | C=C[C@@H](C)[C@H](NS(=O)(=O)c1ccc(C)cc1)C(=O)OCC | – | > 100 µM (inactive) | 20.7 µM (inactive) | 25.8 µM (inactive) | 42.2 µM (inactive) | 32 µM (inactive) | 31.3 | – | 28.1 µM (inactive) | 30.8 µM (inactive) | 37.1 µM (inactive) | 26.2 µM (inactive) | 12.8 µM (inactive) | 30.8 µM (inactive) | 40.3 µM (inactive) | 15.3 µM (inactive) | 76.4 µM (inactive) | > 100 µM (inactive) | 24.9 µM (inactive) | 27.2 µM (inactive)
4 | Cc1nn(-c2ccccc2)c2nc(S)cnc12 | > 100 µM (inactive) | > 100 µM (inactive) | > 100 µM (inactive) | > 100 µM (inactive) | > 100 µM (inactive) | > 100 µM (inactive) | – | > 100 µM (inactive) | – | > 100 µM (inactive) | > 100 µM (inactive) | > 100 µM (inactive) | > 100 µM (inactive) | > 100 µM (inactive) | > 100 µM (inactive) | – | > 100 µM (inactive) | > 100 µM (inactive) | > 100 µM (inactive) | > 100 µM (inactive)
5 | CCOC(=O)CCCSCCCC(=O)CCCSCCCC(=O)OCC | – | > 100 µM (inactive) | > 100 µM (inactive) | > 100 µM (inactive) | > 100 µM (inactive) | > 100 µM (inactive) | > 100 | > 100 µM (inactive) | > 100 µM (inactive) | > 100 µM (inactive) | > 100 µM (inactive) | > 100 µM (inactive) | > 100 µM (inactive) | > 100 µM (inactive) | > 100 µM (inactive) | > 100 µM (inactive) | > 100 µM (inactive) | – | > 100 µM (inactive) | > 100 µM (inactive)
6 | COc1ccc2cc(-c3nc(N)nc(N4N=C(C)CC4(C)C)n3)c(=N)oc2c1 | 17.5 µM (inactive) | 20.2 µM (inactive) | 15.2 µM (inactive) | 14.8 µM (inactive) | 17.4 µM (inactive) | 16.9 µM (inactive) | 14.8 | 19.7 µM (inactive) | 15.9 µM (inactive) | 26.2 µM (inactive) | 15.8 µM (inactive) | 18.7 µM (inactive) | 17.6 µM (inactive) | 13.9 µM (inactive) | – | – | 18.6 µM (inactive) | 15.3 µM (inactive) | 28.9 µM (inactive) | 18 µM (inactive)
7 | O=C(/C=C/c1ccccc1)Oc1ccc(C(=O)/C=C/c2ccc(Cl)cc2)cc1 | > 100 µM (inactive) | > 100 µM (inactive) | > 100 µM (inactive) | > 100 µM (inactive) | 15.8 µM (inactive) | 82.2 µM (inactive) | – | – | 33.8 µM (inactive) | > 100 µM (inactive) | 59.8 µM (inactive) | > 100 µM (inactive) | > 100 µM (inactive) | 3.23 µM (inactive) | > 100 µM (inactive) | 75.3 µM (inactive) | 25.8 µM (inactive) | – | > 100 µM (inactive) | –
8 | COc1nc(C)nc2sc3c(c12)CCCC3 | > 100 µM (inactive) | > 100 µM (inactive) | > 100 µM (inactive) | > 100 µM (inactive) | > 100 µM (inactive) | > 100 µM (inactive) | > 100 | – | > 100 µM (inactive) | 38.4 µM (inactive) | > 100 µM (inactive) | > 100 µM (inactive) | > 100 µM (inactive) | > 100 µM (inactive) | > 100 µM (inactive) | 93.3 µM (inactive) | > 100 µM (inactive) | > 100 µM (inactive) | > 100 µM (inactive) | > 100 µM (inactive)
9 | Cn1ccnc1CCc1ccc(F)cc1F | – | > 100 µM (inactive) | > 100 µM (inactive) | > 100 µM (inactive) | > 100 µM (inactive) | > 100 µM (inactive) | > 100 | – | > 100 µM (inactive) | > 100 µM (inactive) | > 100 µM (inactive) | > 100 µM (inactive) | > 100 µM (inactive) | > 100 µM (inactive) | > 100 µM (inactive) | > 100 µM (inactive) | > 100 µM (inactive) | > 100 µM (inactive) | – | > 100 µM (inactive)
10 | CC(C)C[C@H](NC(=O)[C@H](Cc1ccccc1)NC(=O)c1cnccn1)B(O)O [BORTEZOMIB] | < 0.01 µM (active) | < 0.01 µM (active) | < 0.01 µM (active) | < 0.01 µM (active) | < 0.01 µM (active) | < 0.01 µM (active) | < 0.01 | < 0.01 µM (active) | < 0.01 µM (active) | < 0.01 µM (active) | < 0.01 µM (active) | < 0.01 µM (active) | < 0.01 µM (active) | < 0.01 µM (active) | < 0.01 µM (active) | < 0.01 µM (active) | < 0.01 µM (active) | – | < 0.01 µM (active) | < 0.01 µM (active)
11 | O=c1[nH]nc(-c2cccc([N+](=O)[O-])c2)[nH]1 | > 100 µM (inactive) | > 100 µM (inactive) | > 100 µM (inactive) | > 100 µM (inactive) | > 100 µM (inactive) | > 100 µM (inactive) | > 100 | – | > 100 µM (inactive) | 8.34 µM (inactive) | > 100 µM (inactive) | > 100 µM (inactive) | > 100 µM (inactive) | > 100 µM (inactive) | > 100 µM (inactive) | > 100 µM (inactive) | > 100 µM (inactive) | > 100 µM (inactive) | > 100 µM (inactive) | > 100 µM (inactive)
12 | OC(Cc1cc(CC(O)(C(F)(F)F)C(F)(F)F)nc(CC(O)(C(F)(F)F)C(F)(F)F)c1)(C(F)(F)F)C(F)(F)F | 0.321 µM (active) | 2.2 µM (inactive) | 0.49 µM (active) | 0.764 µM (active) | 0.358 µM (active) | 1.88 µM (inactive) | 0.767 | 0.541 µM (active) | 0.482 µM (active) | 2.07 µM (inactive) | 1.91 µM (inactive) | 3.43 µM (inactive) | 0.337 µM (active) | – | 0.574 µM (active) | 1.92 µM (inactive) | 2.46 µM (inactive) | 2.75 µM (inactive) | 2.05 µM (inactive) | 0.851 µM (active)
13 | O=C(C=P(c1ccccc1)(c1ccccc1)c1ccccc1)c1ccc(-c2cccs2)cc1 | 4.91 µM (inactive) | 4.98 µM (inactive) | 2.9 µM (inactive) | 7.73 µM (inactive) | 3.97 µM (inactive) | 12.9 µM (inactive) | 6.61 | 3.48 µM (inactive) | 4.13 µM (inactive) | 2.61 µM (inactive) | 8.73 µM (inactive) | 5 µM (inactive) | 1.64 µM (inactive) | – | 4.33 µM (inactive) | 3.56 µM (inactive) | 20.5 µM (inactive) | 2.86 µM (inactive) | 1.8 µM (inactive) | 2.36 µM (inactive)
14 | O=C(O)C1CCCCN1CCc1c[nH]c2ccccc12 (stereo not drawn) | > 100 µM (inactive) | > 100 µM (inactive) | > 100 µM (inactive) | > 100 µM (inactive) | > 100 µM (inactive) | > 100 µM (inactive) | > 100 | 30.7 µM (inactive) | > 100 µM (inactive) | > 100 µM (inactive) | > 100 µM (inactive) | > 100 µM (inactive) | > 100 µM (inactive) | – | > 100 µM (inactive) | > 100 µM (inactive) | > 100 µM (inactive) | > 100 µM (inactive) | > 100 µM (inactive) | > 100 µM (inactive)
15 | Cc1cnc(-n2c(C)nc3cc(Cl)ccc3c2=O)s1 | 64.3 µM (inactive) | 34.2 µM (inactive) | 45.6 µM (inactive) | 40 µM (inactive) | 30.2 µM (inactive) | 44.1 µM (inactive) | 26.2 | 47.6 µM (inactive) | 21.8 µM (inactive) | 11.1 µM (inactive) | 25.6 µM (inactive) | 56.4 µM (inactive) | 23.2 µM (inactive) | – | 43 µM (inactive) | 10.6 µM (inactive) | 28.4 µM (inactive) | 32 µM (inactive) | 29.1 µM (inactive) | 58.5 µM (inactive)
